Source: patent US12528790B2, “Amide derivative having antiviral activity” (Shionogi & Co., Ltd., priority 2020, dated 2026)
pEC50: −log10 of the molar value. Read-outs that look alike come from different tables or passages of the source.

Tested on: RSV A2 strain
Assay: In vitro CPE (CytoPathic Effect) inhibition effect evaluation test, RSV type A
Format: cell-based
Conditions: inhibitory effect against RSV type A (RSV A2 strain), HEp-2 cells, CPE inhibition, read-out: EC50
In short: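 EC50 is the concentration giving 50% inhibition of virus-induced cytopathic effect, fitted by nonlinear regression from CellTiter-Glo 2.0 viability. Compounds in 3-fold series were co-incubated at 37 °C with HEp-2 cells and RSV: A2 strain for 4 days, B (Wash/18537) for 5 days; uninfected wells served as control.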

[1] = human respiratory syncytial virus

| SMILES | pEC50 | pEC50 [1] |
| --- | --- | --- |
| O=C(NC1(C(=O)O)C2CC3CC(C2)CC1C3)c1ccc(-c2cn(-c3ccncc3F)c3cc(OC4CCN(c5ncccn5)CC4)ccc23)nc1C(F)(F)F (stereo not shown) [Compound I-312] | > 8.00 | – |
| O=C(NC1(C(=O)O)C2CC3CC(C2)CC1C3)c1ccc(-c2cn(-c3ccccc3F)c3cc(OC4CCN(c5ncccn5)CC4)ccc23)nc1C(F)(F)F (stereo not shown) [Compound I-313] | > 8.00 | – |
| Cc1ccccc1-n1cc(-c2ccc(C(=O)NC3(C(=O)O)C4CC5CC(C4)CC3C5)c(C(F)(F)F)n2)c2ccc(OC3CCN(c4ncccn4)CC3)cc21 (stereo not shown) [Compound I-314] | > 8.00 | – |
| O=C(NC1(C(=O)O)C2CC3CC(C2)CC1C3)c1ccc(-c2cn(-c3ncccc3C(F)(F)F)c3cc(OC4CCN(c5ncccn5)CC4)ccc23)nc1C(F)(F)F (stereo not shown) [Compound I-316] | > 8.00 | – |
| Cc1cnccc1-n1cc(-c2ccc(C(=O)NC3(C(=O)O)C4CC5CC(C4)CC3C5)c(C(F)(F)F)n2)c2ccc(OC3CCN(c4ncccn4)CC3)cc21 (stereo not shown) [Compound I-317] | > 8.00 | – |
| COc1ccccc1-n1cc(-c2ccc(C(=O)NC3(C(=O)O)C4CC5CC(C4)CC3C5)c(C(F)(F)F)n2)c2ccc(OC3CCN(c4ncccn4)CC3)cc21 (stereo not shown) [Compound I-318] | > 8.00 | – |
| O=C(Nc1ccc2c(c1)C1(CCOCC1)CN2c1ncc(C(=O)NC2(C(=O)O)C3CC4CC(C3)CC2C4)c(C(F)(F)F)n1)c1ccccc1 (stereo not shown) [Compound I-323] | > 8.00 | – |
| COc1cccnc1-n1cc(-c2ccc(C(=O)NC3(C(=O)O)C4CC5CC(C4)CC3C5)c(C(F)(F)F)n2)c2ccc(OC3CCN(c4ncccn4)CC3)cc21 (stereo not shown) [Compound I-325] | > 8.00 | – |
| O=C(NC1(C(=O)O)C2CC3CC(C2)CC1C3)c1ccc(-c2cn(-c3ccccc3C(F)(F)F)c3cc(OC4CCN(c5ncccn5)CC4)ccc23)nc1C(F)(F)F (stereo not shown) [Compound I-327] | > 8.00 | – |
| Cn1cc(-n2cc(-c3ccc(C(=O)NC4(C(=O)O)C5CC6CC(C5)CC4C6)c(C(F)(F)F)n3)c3ccc(OC4CCN(c5ncccn5)CC4)cc32)cn1 (stereo not shown) [Compound I-328] | > 8.00 | – |
| O=C(NC1(C(=O)O)C2CC3CC(C2)CC1C3)c1ccc(-c2cn(-c3ccncc3C(F)(F)F)c3cc(OC4CCN(c5ncccn5)CC4)ccc23)nc1C(F)(F)F (stereo not shown) [Compound I-329] | > 8.00 | – |
| O=C(NC1(C(=O)O)C2CC3CC(C2)CC1C3)c1cnc(N2CC3(CCOCC3)c3cc(OC4CCN(c5ncccn5)CC4)cc(F)c32)nc1C(F)(F)F (stereo not shown) [Compound I-332] | > 8.00 | – |
| Cn1ccc(-n2cc(-c3ccc(C(=O)NC4(C(=O)O)C5CC6CC(C5)CC4C6)c(C(F)(F)F)n3)c3ccc(OC4CCN(c5ncccn5)CC4)cc32)c1 (stereo not shown) [Compound I-334] | > 8.00 | – |
| N#Cc1cccc(-n2cc(-c3ccc(C(=O)NC4(C(=O)O)C5CC6CC(C5)CC4C6)c(C(F)(F)F)n3)c3ccc(OC4CCN(c5ncccn5)CC4)cc32)c1 (stereo not shown) [Compound I-336] | > 8.00 | – |
| N#Cc1ccc(-n2cc(-c3ccc(C(=O)NC4(C(=O)O)C5CC6CC(C5)CC4C6)c(C(F)(F)F)n3)c3ccc(OC4CCN(c5ncccn5)CC4)cc32)cc1 (stereo not shown) [Compound I-337] | > 8.00 | – |
| N#Cc1cccnc1-n1cc(-c2ccc(C(=O)NC3(C(=O)O)C4CC5CC(C4)CC3C5)c(C(F)(F)F)n2)c2ccc(OC3CCN(c4ncccn4)CC3)cc21 (stereo not shown) [Compound I-338] | > 8.00 | – |
| N#Cc1cccc(-n2cc(-c3ccc(C(=O)NC4(C(=O)O)C5CC6CC(C5)CC4C6)c(C(F)(F)F)n3)c3ccc(OC4CCN(c5ncccn5)CC4)cc32)n1 (stereo not shown) [Compound I-339] | > 8.00 | – |
| N#Cc1ccc(-n2cc(-c3ccc(C(=O)NC4(C(=O)O)C5CC6CC(C5)CC4C6)c(C(F)(F)F)n3)c3ccc(OC4CCN(c5ncccn5)CC4)cc32)nc1 (stereo not shown) [Compound I-340] | > 8.00 | – |
| O=C(NC1(C(=O)O)C2CC3CC(C2)CC1C3)c1cnc(N2CC3(CCOCC3)c3cc(NS(=O)(=O)c4ccccc4)ccc32)nc1C(F)(F)F (stereo not shown) [Compound I-342] | 5.30 to 7.00 | – |
| CN(C(=O)c1ccccc1)c1ccc2c(c1)C1(CCOCC1)CN2c1ncc(C(=O)NC2(C(=O)O)C3CC4CC(C3)CC2C4)c(C(F)(F)F)n1 (stereo not shown) [Compound I-343] | 7.00 to 8.00 | – |
| CN(c1ccc2c(c1)C1(CCOCC1)CN2c1ncc(C(=O)NC2(C(=O)O)C3CC4CC(C3)CC2C4)c(C(F)(F)F)n1)S(=O)(=O)c1ccccc1 (stereo not shown) [Compound I-344] | 7.00 to 8.00 | – |
| O=C(NC1(C(=O)O)C2CC3CC(C2)CC1C3)c1cnc(N2CC3(CCOCC3)c3cc(Br)ccc32)nc1C(F)(F)F (stereo not shown) [Compound I-347] | > 8.00 | – |
| O=C(NC1(C(=O)O)C2CC3CC(C2)CC1C3)c1cnc(N2CC3(CCOCC3)c3cc(Oc4ccccc4)ccc32)nc1C(F)(F)F (stereo not shown) [Compound I-348] | > 8.00 | – |
| O=C(NC1(C(=O)O)C2CC3CC(C2)CC1C3)c1cnc(N2CC3(CCOCC3)c3cc(C4=CCCN(c5ncccn5)C4)ccc32)nc1C(F)(F)F (stereo not shown) [Compound I-349] | > 8.00 | – |
| Cn1cc2c(n1)CCN(Cc1ccc3c(c1)C1(CCOCC1)CN3c1ncc(C(=O)NC3(C(=O)O)C4CC5CC(C4)CC3C5)c(C(F)(F)F)n1)C2 (stereo not shown) [Compound I-351] | 7.00 to 8.00 | – |

| SMILES | pEC50 | pEC50 [1] |
| --- | --- | --- |
| O=C(NC1(C(=O)O)C2CC3CC(C2)CC1C3)c1cnc(N2CC3(CCOCC3)c3cc(CN4CCC5(CC4)COC5)ccc32)nc1C(F)(F)F (stereo not shown) [Compound I-352] | 7.00 to 8.00 | – |
| O=C(NC1(C(=O)O)C2CC3CC(C2)CC1C3)c1ccc(-c2cn(C3=CCC(F)(F)CC3)c3cc(OC4CCN(c5ncc(F)cn5)CC4)ccc23)nc1C(F)(F)F (stereo not shown) [Compound I-359] | > 8.00 | – |
| O=C(NC1(C(=O)O)C2CC3CC(C2)CC1C3)c1cnc(N2CC3(CCOCC3)c3cc(CN4CCN(c5ncccn5)CC4)ccc32)nc1C(F)(F)F (stereo not shown) [Compound I-360] | > 8.00 | – |
| O=C(NC1(C(=O)O)C2CC3CC(C2)CC1C3)c1cnc(N2CC3(CCS(=O)(=O)CC3)c3cc(OC4CCN(c5ncc(F)cn5)CC4)ccc32)nc1C(F)(F)F (stereo not shown) [Compound I-365] | > 8.00 | – |
| Cn1ccc(CCOc2ccc3c(-c4ncc(C(=O)NC5(C(=O)O)C6CC7CC(C6)CC5C7)c(C(F)(F)F)n4)cn(C4CCC(F)(F)CC4)c3c2)n1 (stereo not shown) [Compound I-366] | – | > 8.00 |
| O=C(NC1(C(=O)O)C2CC3CC(C2)CC1C3)c1cnc(-c2cn(C3CCC(F)(F)CC3)c3cc(OC4CCC5(CC4)CN(c4ncccn4)C5)ccc23)nc1C(F)(F)F (stereo not shown) [Compound I-369] | – | > 8.00 |
| O=C(NC1(C(=O)O)C2CC3CC(C2)CC1C3)c1cnc(-c2cn(C3CCC(F)(F)CC3)c3cc(OC4CCN(c5ncccn5)CC4F)ccc23)nc1C(F)(F)F (stereo not shown) [Compound I-371] | – | > 8.00 |
| O=C(NC1(C(=O)O)C2CC3CC(C2)CC1C3)c1cnc(-c2cn(C3CCC(F)(F)CC3)c3cc(OCCNc4ncccn4)ccc23)nc1C(F)(F)F (stereo not shown) [Compound I-372] | – | > 8.00 |
| O=C(NC1(C(=O)O)C2CC3CC(C2)CC1C3)c1cnc(-c2cn(C3CCC(F)(F)CC3)c3cc(O[C@@H]4CCN(CC(F)(F)F)C4)ccc23)nc1C(F)(F)F (stereo partly shown) [Compound I-374] | – | > 8.00 |
| O=C(NC1(C(=O)O)C2CC3CC(C2)CC1C3)c1cnc(-c2cn(C3CCC(F)(F)CC3)c3cc(O[C@H]4CCN(CC(F)(F)F)C4)ccc23)nc1C(F)(F)F (stereo partly shown) [Compound I-375] | – | > 8.00 |
| CC1CN(c2ncc(F)cn2)CCC1Oc1ccc2c(-c3ncc(C(=O)NC4(C(=O)O)C5CC6CC(C5)CC4C6)c(C(F)(F)F)n3)cn(C3CCC(F)(F)CC3)c2c1 (stereo not shown) [Compound I-376] | – | > 8.00 |
| O=C(NC1(C(=O)O)C2CC3CC(C2)CC1C3)c1cnc(-c2cn(C3CCC(F)(F)CC3)c3cc(O[C@H]4CCN(c5ncc(F)cn5)C4)ccc23)nc1C(F)(F)F (stereo partly shown) [Compound I-377] | – | > 8.00 |
| COC1CC(n2cc(-c3ncc(C(=O)NC4(C(=O)O)C5CC6CC(C5)CC4C6)c(C(F)(F)F)n3)c3ccc(OC4CCN(c5ncc(F)cn5)CC4)cc32)C1 (stereo not shown) [Compound I-378] | – | > 8.00 |
| O=C(NC1(C(=O)O)C2CC3CC(C2)CC1C3)c1cnc(N2CC3(CCOCC3)c3cc(OCC(F)(F)F)ccc32)nc1C(F)(F)F (stereo not shown) [Compound I-381] | – | > 8.00 |
| O=C(NC1(C(=O)O)C2CC3CC(C2)CC1C3)c1cnc(N2CC3(CCCCC3)c3cc(OC4CCN(c5ncc(F)cn5)CC4)ccc32)nc1C(F)(F)F (stereo not shown) [Compound I-383] | – | > 8.00 |
| O=C(NC1(C(=O)O)C2CC3CC(C2)CC1C3)c1cnc(-c2cn(C3CCC(F)(F)CC3)c3cc(OC4CN(c5ncc(F)cn5)C4)ccc23)nc1C(F)(F)F (stereo not shown) [Compound I-387] | – | > 8.00 |
| O=C(NC1(C(=O)O)C2CC3CC(C2)CC1C3)c1cnc(-c2cn(C3CCC(F)(F)CC3)c3cc(OC4CN(CC(F)(F)F)C4)ccc23)nc1C(F)(F)F (stereo not shown) [Compound I-388] | – | > 8.00 |
| O=C(NC1(C(=O)O)C2CC3CC(C2)CC1C3)c1ccc(-c2cn(-c3ccc(F)cc3)c3cc(OC4CCN(c5ncccn5)CC4)ccc23)nc1C(F)(F)F (stereo not shown) [Compound I-389] | – | > 8.00 |
| O=C(NC1(C(=O)O)C2CC3CC(C2)CC1C3)c1ccc(-c2cn(-c3cccc(F)c3)c3cc(OC4CCN(c5ncccn5)CC4)ccc23)nc1C(F)(F)F (stereo not shown) [Compound I-390] | – | > 8.00 |
| O=C(NC1(C(=O)O)C2CC3CC(C2)CC1C3)c1cnc(N2CC3(CCCCC3)c3cc(OC4CCN(c5ncccn5)CC4)c(F)cc32)nc1C(F)(F)F (stereo not shown) [Compound I-394] | – | > 8.00 |
| CC1CN(CC(F)(F)F)CCC1Oc1ccc2c(-c3ncc(C(=O)NC4(C(=O)O)C5CC6CC(C5)CC4C6)c(C(F)(F)F)n3)cn(C3CCC(F)(F)CC3)c2c1 (stereo not shown) [Compound I-403] | – | > 8.00 |
| O=C(NC1(C(=O)O)C2CC3CC(C2)CC1C3)c1cnc(-c2cn(C3CCC(F)(F)CC3)c3cc(OC4CCN(CC(F)(F)C(F)(F)F)CC4)ccc23)nc1C(F)(F)F (stereo not shown) [Compound I-408] | – | > 8.00 |
| O=C(NC1(C(=O)O)C2CC3CC(C2)CC1C3)c1cnc(-c2cn(C3CCC(F)(F)CC3)c3cc(OC4CCN(CC(F)(F)C(F)F)CC4)ccc23)nc1C(F)(F)F (stereo not shown) [Compound I-409] | – | > 8.00 |
| O=C(NC1(C(=O)O)C2CC3CC(C2)CC1C3)c1cnc(-c2cn(C3CCC(F)(F)CC3)c3cc(OC4CCN(c5cc(F)ccn5)CC4)ccc23)nc1C(F)(F)F (stereo not shown) [Compound I-411] | – | > 8.00 |
